Experimental findings from patent US20080221214A1, “Process for the preparation of "Urchym" a urease and alpha-chymotrypsin enzyme inhibitory drug” (priority 2006, published 2008) are described below.

Assay [1] concerns the target T1, Jack bean urease (Canavalia ensiformis, UniProt P07374).
T1 construct: purchased Sigma-Aldrich
The assay can be described thus: biochemical.
Description: Reaction mixtures comprising a 25 μL solution of enzyme (Jack bean urease, Sigma-Aldrich, specific activity 15 EU/mg) and 55 μL of buffer (0.01 M K2HPO43H2O, 1 MM EDTA 0.01 M LiCl; pH 8.2) containing 100 mM urea were incubated with 5 μL of the test compounds (0.01 μM-1 mM, dissolved in DMSO) at 30° C. for 15 min in 96-well plates. Urease activity was determined by measuring ammonia production using the indophenol method, 45 μL, of phenol reagent (1% w/v phenol and 0.005% w/v sodium nitroprusside) and 70 μL of alkali reagent (0.5% w/v NaOH and 0.1% w/v NaOCI) were added to each well (the final reaction volume was 200 μL). The increasing absorbance at 630 nm was measured after 50 min using a microplate reader (Molecular Device). All reactions were performed in triplicate. The results (change in absorbance per min) were processed using SoftMax Pro software (Molecular Device). Percent inhibitions were calculated using the formula 100−(ODtest well/ODcontrol×100).

Assay [2] addresses T2, α-chymotrypsin (Bos taurus, UniProt P00766).
T2 construct: purchased Sigma-Aldrich
The assay can be described thus: α-Chymotrypsin assay and inhibition. Format: biochemical. Conditions: substrate N-succinyl-phenylalanine-p-nitroanilide, pH 7.6, 37° C., 30 min pre-incubation; read-out: IC50 value, α-chymotrypsin inhibitory activity.
Description: For the determination of α-chymotrypsin inhibitory activity the literature protocol was followed. In brief α-chymotrypsin (9 units/mL in 50 mM Tris-HCl buffer, pH 7.6; Sigma-Aldrich) was pre-incubated with the compound (3.02×10^−5 g/100 μL) for 30 min at 37° C. and then 100 μL of substrate solution (N-succinyl-phenylalanine-p-nitroanilide; 1 mg/mL) in 50 mM Tris-HCl buffer, pH 7.6) was added to start the enzyme reaction. The absorbance of released p-nitroaniline was continuously monitored at 410 nm until a significant color change had achieved. All reactions were performed in triplicate. Percent inhibitions were calculated using the formula 100-(ODtest well/ODcontrol×100).

T1 sequence (P07374 whole entry, looked up): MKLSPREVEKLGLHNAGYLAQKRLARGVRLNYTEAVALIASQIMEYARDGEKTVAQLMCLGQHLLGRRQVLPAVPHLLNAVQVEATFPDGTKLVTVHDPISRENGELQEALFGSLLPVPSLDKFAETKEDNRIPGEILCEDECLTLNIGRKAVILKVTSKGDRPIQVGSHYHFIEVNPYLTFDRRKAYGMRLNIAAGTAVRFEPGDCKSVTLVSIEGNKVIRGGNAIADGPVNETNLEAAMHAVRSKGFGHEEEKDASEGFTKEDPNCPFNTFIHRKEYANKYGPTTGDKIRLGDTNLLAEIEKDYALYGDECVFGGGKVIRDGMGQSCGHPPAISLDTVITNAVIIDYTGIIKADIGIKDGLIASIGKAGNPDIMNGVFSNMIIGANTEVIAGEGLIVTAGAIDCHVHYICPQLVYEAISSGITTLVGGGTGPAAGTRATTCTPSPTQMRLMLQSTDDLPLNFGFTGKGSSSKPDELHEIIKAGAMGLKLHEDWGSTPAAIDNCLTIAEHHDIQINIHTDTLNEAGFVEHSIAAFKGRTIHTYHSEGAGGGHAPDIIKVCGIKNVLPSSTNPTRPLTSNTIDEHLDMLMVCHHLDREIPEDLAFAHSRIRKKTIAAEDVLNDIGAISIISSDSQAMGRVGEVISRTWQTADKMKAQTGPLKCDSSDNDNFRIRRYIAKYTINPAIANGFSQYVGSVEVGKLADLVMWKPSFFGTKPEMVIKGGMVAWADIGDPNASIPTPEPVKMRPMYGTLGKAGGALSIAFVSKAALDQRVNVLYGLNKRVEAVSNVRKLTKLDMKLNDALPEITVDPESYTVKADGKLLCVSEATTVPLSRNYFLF

With `O=C(Nc1ccc([N+](=O)[O-])cc1)Nc1ccc([N+](=O)[O-])cc1` [Urchym, N-4-nitrophenyl-N′-4′-nitrophenylurea], the values for the IC50 in assay [1] and in assay [2] were 1.25 µM and 3.15 ± 0.14 µM, respectively.

By IC50 is commonly meant the point on the concentration scale where inhibition reaches its midpoint.
